# Measured values taken from US11192863B2, “Antiviral compounds and methods” (Biotron Limited, priority 2003, dated 2021).
# Like-named read-outs stand apart in the source and are kept apart here.
# Key:
# SARS-CoV E protein = SARS-CoV E protein (Severe acute respiratory syndrome coronavirus, UniProt P59637); assay type: cell-based
# Vpu protein = Vpu protein (Human immunodeficiency virus type 1 group M subtype B, UniProt P05919); settings: halo of growth score between zero and six; XL1-blue E. coli with pPL-Vpu, no adenine, 37° C.
# MHV (strain MHV-A59) = settings: L929 cells
# human coronavirus OC43 = test: microbe, parasite or virus in culture; assay type: cell-based; settings: Betacoronavirus 1, OC43, MRC5, 120 h, MRC-5 cells, 5 days post infection
# 229E-CoV E-protein = 229E-CoV E-protein (Human coronavirus 229E, UniProt P19741); test: Bacterial bio-assay for 229E-CoV E-protein; settings: halo of growth score; E. coli expressing E protein at 37° C.
# Dengue 1 strain Hawaii = test: Dengue cytoproliferation assay in LLC-MK2 cells (Alamar Blue); assay type: cell-based, Dengue virus; settings: 7 days
Structure (SMILES),SARS E protein Inhibition (score/# of times tested) (SARS-CoV E protein),Vpu Inhibition (score/# of times tested) (Vpu protein),Percent reduction in Plaque number/# experiments (MHV (strain MHV-A59); 1 uM),Percent reduction in Plaque number/# experiments (MHV (strain MHV-A59); 10 uM),Percent reduction in Plaque number/# experiments (MHV (strain MHV-A59); 20 uM),inhibition at 2.5 µM (human coronavirus OC43) [%],229E E protein Inhibition (score) (229E-CoV E-protein),Antiviral Percent of Negative Control (Dengue 1 strain Hawaii; Drug Conc. 0.625 μM) [%],Antiviral Percent of Negative Control (Dengue 1 strain Hawaii; Drug Conc. 1.25 μM) [%],Antiviral Percent of Negative Control (Dengue 1 strain Hawaii; Drug Conc. 2.5 μM) [%],Antiviral Percent of Negative Control (Dengue 1 strain Hawaii; Drug Conc. 5 μM) [%],Antiviral Percent of Negative Control (Dengue 1 strain Hawaii; Drug Conc. 10 μM) [%],Toxic (noted in place of plaque reduction) (MHV (strain MHV-A59); 20 uM)
"N=C(N)NC(=O)/C=C/c1ccc(Cl)cc1Cl [2,4-dichlorocinnamolyguanidine]",0.63/2 score,0.63/2 score,43/1%,73/1%,76/1%,36,,,,,,,
"N=C(N)NC(=O)/C=C/c1c(Cl)cccc1Cl [2,6-dichlorocinnamoylguanidine]",2.25/1 score,2.88/2 score,40/1%,70/1%,91/1%,27,1.0,,,,,,
"N=C(N)NC(=O)/C=C/c1ccc(Cl)c(Cl)c1 [3,4-dichlorocinnamoylguanidine]",4.15/2 score,2.9/3 score,50/2%,96/1%,91/2%,90,4.4,,,,,,
N=C(N)NC(=O)/C=C/c1cccc(OC(F)(F)F)c1 [3-(trifluoromethoxy)cinnamoylguanidine],2.71/1 score,2.44/2 score,41/2%,90/3%,100/1%,4,4.1,,,,,,
CC(C)c1ccc(/C=C/C(=O)NC(=N)N)cc1 [4-isopropylcinnamoylguanidine],3.16/2 score,1.4/2 score,41/3%,93/3%,95/3%,68,4.9,,,,,,
COc1ccc(Br)cc1/C=C/C(=O)NC(=N)N [5-bromo-2-methoxycinnamoylguanidine],,1.9/2 score,66/1%,100/1%,,24,3.6,,,,,,
CC(C)(C)Nc1nc(N)c(C(=O)N=C(N)N)nc1Cl [5-tert-butylamino-amiloride],2.01/2 score,0.2/7 score,34/4%,84/4%,89/4%,,0.3,,,,,,
N=C(N)NC(=O)/C=C/c1ccccc1Cl [(2-Chlorocinnamoyl)guanidine],3.1/3 score,4.0/4 score,53/3%,88/3%,95/2%,96,0.1,64.3,52.5,22.7,7.7,8.4,
COc1ccccc1/C=C/C(=O)NC(=N)N [(2-Methoxycinnamoyl)guanidine],0.69/2 score,1.7/4 score,23/2%,85/2%,90/2%,,1.1,,,,,,
N=C(N)NC(=O)/C=C/c1cccc(Cl)c1 [(3-Chlorocinnamoyl)guanidine],3.87/3 score,4.38/4 score,39/2%,86/2%,94/1%,,0.8,,,,,,
COc1cccc(/C=C/C(=O)NC(=N)N)c1 [(3-Methoxycinnamoyl)guanidine],0.63/2 score,1.52/6 score,37/3%,87/2%,92/2%,,1.4,,,,,,
N=C(N)NC(=O)/C=C/c1cccc([N+](=O)[O-])c1 [(3-Nitrocinnamoyl)guanidine],1.51/2 score,0.9/1 score,42/3%,77/3%,95/2%,,0.1,,,,,,
NC(N)=NC(=O)/C=C/c1ccc(Br)cc1 [(4-Bromocinnamoyl)guanidine],1.69/2 score,2.5/4 score,52/3%,98/3%,,29,2.0,,,,,,Toxic/2
NC(N)=NC(=O)/C=C/c1ccc(Cl)cc1 [(4-Chlorocinnamoyl)guanidine],1.94/2 score,2.7/5 score,43/3%,88/2%,97/2%,36,1.4,,,,,,
N=C(N)NC(=O)/C=C/c1ccc(O)cc1 [(4-Hydroxycinnamoyl)guanidine],1.63/2 score,1.1/2 score,13/1%,15/1%,19/1%,,0.6,,,,,,
COc1ccc(/C=C/C(=O)NC(=N)N)cc1 [(4-Methoxycinnamoyl)guanidine],0.88/2 score,2.13/3 score,51/3%,96/4%,98/4%,,0.1,,,,,,
NC(N)=NC(=O)c1ccc(Oc2ccccc2)cc1 [(4-Phenoxybenzoyl)guanidine],0.57/2 score,0.81/2 score,32/1%,65/1%,73/1%,,2.3,,,,,,
"C/C(=C\c1ccccc1)C(=O)NC(=N)N [(a-Methylcinnamoyl)guanidine, (α-Methylcinnamoyl)guanidine]",0.50/1 score,0.6/2 score,51/2%,75/3%,81/2%,,1.0,,,,,,
Cl.N=C(N)NC(=O)/C=C/c1ccccc1 [cinnamoylguanidine hydrochloride],2.50/1 score,0.6/2 score,56/1%,72/2%,85/1%,,0.5,,,,,,
